Assays:
Conditions in all cases: 72 h
BV-173 [1] = tested on: BV-173
Procedure, shortened: (§1)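 The IC50 was read from log-logistic dose–response fits. Fifteen myeloid leukaemia lines were exposed for 72 h at 37 °C with 5% CO2 to five tenfold doses from 1 to 10,000 nM in duplicate. ATP luminescence, normalised to vehicle and to a 10 µM positive control, was fitted with four parameters.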

HEL [2] = tested on: HEL
Procedure, shortened: as §1

HL-60 [3] = tested on: HL-60
Procedure, shortened: as §1

K-562 [4] = tested on: K-562
Procedure, shortened: as §1

KCL-22 [5] = tested on: KCL-22
Procedure, shortened: as §1

KG-1 [6] = tested on: KG-1
Procedure, shortened: as §1

KU-812 [7] = tested on: KU-812
Procedure, shortened: as §1

LAMA-84 [8] = tested on: LAMA-84
Procedure, shortened: as §1

ML-2 [9] = tested on: ML-2
Procedure, shortened: as §1

MOLM-13 [10] = tested on: MOLM-13
Procedure, shortened: as §1

MV4-11 [11] = tested on: MV4-11
Procedure, shortened: as §1

Mono-Mac-6 [12] = tested on: Mono-Mac-6
Procedure, shortened: as §1

NOMO-1 [13] = tested on: NOMO-1
Procedure, shortened: as §1

SHI-1 [14] = tested on: SHI-1
Procedure, shortened: as §1

THP-1 [15] = tested on: THP-1
Procedure, shortened: as §1

BV-173 [16] = test: cell viability (% survival relative to DMSO control, bortezomib = 0%); higher = less cytotoxic
Procedure, shortened: (§2)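 Fifteen myeloid leukaemia cell lines (10 AML, 5 CML) were seeded at a density titrated to the linear growth range. They went into 384-well plates with compounds pre-printed at 1, 10, 100, 1000 or 10000 nM in duplicate. After 72 h at 37 °C with 5% CO2, viability was read by CellTiter-Glo luminescence. Values are percent survival, with vehicle set to 100% and a 10 µM positive control to 0%, averaged over the duplicates.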

HEL [17] = test: as above
Procedure, shortened: as §2

HL-60 [18] = test: as above
Procedure, shortened: as §2

K-562 [19] = test: as above
Procedure, shortened: as §2

KCL-22 [20] = test: as above
Procedure, shortened: as §2

KG-1 [21] = test: as above
Procedure, shortened: as §2

KU-812 [22] = test: as above
Procedure, shortened: as §2

LAMA-84 [23] = test: as above
Procedure, shortened: as §2

ML-2 [24] = test: as above
Procedure, shortened: as §2

MOLM-13 [25] = test: as above
Procedure, shortened: as §2

MV4-11 [26] = test: as above
Procedure, shortened: as §2

Mono-Mac-6 [27] = test: as above
Procedure, shortened: as §2

NOMO-1 [28] = test: as above
Procedure, shortened: as §2

SHI-1 [29] = test: as above
Procedure, shortened: as §2

THP-1 [30] = test: as above
Procedure, shortened: as §2

NCc1ccc(S(N)(=O)=O)cc1 [4-Homosulfanilamide]
Conditions | IC50 (cell viability) [µM]
BV-173 [1] | > 10
HEL [2] | > 10
HL-60 [3] | > 10
K-562 [4] | > 10
KCL-22 [5] | > 10
KG-1 [6] | > 10
KU-812 [7] | > 10
LAMA-84 [8] | > 10
ML-2 [9] | > 10
MOLM-13 [10] | > 10
MV4-11 [11] | > 10
Mono-Mac-6 [12] | > 10
NOMO-1 [13] | > 10
SHI-1 [14] | > 10
THP-1 [15] | > 10

cell viability [%]
Conditions | 1 nM | 10 nM | 100 nM | 1000 nM | 10000 nM
BV-173 [16] | 96.7 | 85.9 | 91.7 | 96.6 | 97.6
HEL [17] | 94.2 | 71.2 | 99.3 | 98 | 106
HL-60 [18] | 88.1 | 97 | 109 | 82.1 | 110
K-562 [19] | 85.1 | 90 | 87.5 | 104 | 102
KCL-22 [20] | 99.7 | 107 | 103 | 103 | 106
KG-1 [21] | 91.4 | 96 | 97.7 | 99.1 | 96.6
KU-812 [22] | 97.9 | 93.1 | 96.3 | 100 | 98.1
LAMA-84 [23] | 99.5 | 97.7 | 94.7 | 99.3 | 100
ML-2 [24] | 90.9 | 92.3 | 94.7 | 91.8 | 102
MOLM-13 [25] | 80.7 | 93.2 | 87.3 | 80 | 105
MV4-11 [26] | 93.9 | 87.5 | 90.2 | 89.9 | 106
Mono-Mac-6 [27] | 107 | 101 | 106 | 96 | 92.3
NOMO-1 [28] | 97 | 96.1 | 98.3 | 99.8 | 100
SHI-1 [29] | 96.8 | 107 | 104 | 102 | 111
THP-1 [30] | 98.5 | 92.5 | 105 | 96.2 | 99.5

C=C1NC(=O)c2cc(CN(C)c3ccc(C(=O)N[C@@H](CCC(=O)O)C(=O)O)s3)ccc2N1 [Raltitrexed]
Conditions | IC50 (cell viability) [µM]
BV-173 [1] | 0.0524
HEL [2] | 0.0376
HL-60 [3] | 0.422
K-562 [4] | 0.201
KCL-22 [5] | 0.0698
KG-1 [6] | > 10
KU-812 [7] | 0.056
LAMA-84 [8] | 0.0428
ML-2 [9] | 0.122
MOLM-13 [10] | 0.0479
MV4-11 [11] | 0.0919
Mono-Mac-6 [12] | 0.0452
NOMO-1 [13] | 0.0829
SHI-1 [14] | 0.562
THP-1 [15] | 0.193

cell viability [%]
Conditions | 1 nM | 10 nM | 100 nM | 1000 nM | 10000 nM
BV-173 [16] | 95.6 | 163 | 8.17 | 1.32 | 3.9
HEL [17] | 100 | 109 | 6.54 | 6.59 | 7.77
HL-60 [18] | 108 | 127 | 116 | 6.78 | 6.89
K-562 [19] | 104 | 121 | 86.5 | 49.2 | 52.4
KCL-22 [20] | 103 | 107 | 45.4 | 21.2 | 22
KG-1 [21] | 101 | 103 | 101 | 100 | 102
KU-812 [22] | 94.1 | 104 | 37.7 | 34.6 | 39.1
LAMA-84 [23] | 97.1 | 108 | 27.7 | 22.4 | 26.6
ML-2 [24] | 93.9 | 121 | 61.6 | 5.21 | 6.92
MOLM-13 [25] | 118 | 145 | 5.74 | 1.25 | 1.81
MV4-11 [26] | 108 | 110 | 48.1 | 4.34 | 6.68
Mono-Mac-6 [27] | 94.2 | 108 | 19.4 | 8.75 | 9.59
NOMO-1 [28] | 99.5 | 113 | 51.3 | 34.8 | 31.4
SHI-1 [29] | 106 | 118 | 99.8 | 38.4 | 43.3
THP-1 [30] | 92.9 | 118 | 61.4 | 40.7 | 46.1

Cc1cc(O)c2c(c1)C(=O)c1cc(O)cc(O)c1C2=O [Emodin]
Conditions | IC50 (cell viability) [µM]
BV-173 [1] | > 10
HEL [2] | > 10
HL-60 [3] | > 10
K-562 [4] | > 10
KCL-22 [5] | > 10
KG-1 [6] | > 10
KU-812 [7] | > 10
LAMA-84 [8] | > 10
ML-2 [9] | > 10
MOLM-13 [10] | > 10
MV4-11 [11] | > 10
Mono-Mac-6 [12] | > 10
NOMO-1 [13] | > 10
SHI-1 [14] | > 10
THP-1 [15] | > 10

cell viability [%]
Conditions | 1 nM | 10 nM | 100 nM | 1000 nM | 10000 nM
BV-173 [16] | 88.8 | 111 | 99.8 | 74.6 | 89.8
HEL [17] | 105 | 114 | 98.5 | 89.8 | 115
HL-60 [18] | 90.5 | 97.8 | 124 | 88.2 | 109
K-562 [19] | 109 | 94.2 | 102 | 102 | 112
KCL-22 [20] | 103 | 97.9 | 96.6 | 98.5 | 96
KG-1 [21] | 90.7 | 89.7 | 96.1 | 97.3 | 94.9
KU-812 [22] | 95.1 | 100 | 104 | 89.8 | 80.8
LAMA-84 [23] | 102 | 100 | 102 | 96.5 | 112
ML-2 [24] | 97.8 | 104 | 101 | 89.5 | 98.2
MOLM-13 [25] | 67 | 101 | 112 | 95.2 | 71.4
MV4-11 [26] | 92.8 | 85.6 | 93 | 99 | 100
Mono-Mac-6 [27] | 92.1 | 106 | 97.3 | 102 | 81.7
NOMO-1 [28] | 99.1 | 100 | 103 | 104 | 112
SHI-1 [29] | 88.6 | 97.8 | 98.3 | 94.5 | 93.5
THP-1 [30] | 90.6 | 97.3 | 106 | 90.5 | 105

Source: the supplement of paper PMC8671470
